US20170002313A1, “COMPOSITIONS AND METHODS OF OBTAINING AND USING ENDODERM AND HEPATOCYTE CELLS” (Genentech Inc., priority 2012, published 2017)

How the values were obtained:
mTOR = mTOR (Homo sapiens, UniProt P42345); assay: In vitro kinase profile, PI3K alpha_MTOR score; type: biochemical
Description: (§1) The effect of each compound on the PI3K/AKT/MTOR pathway was evaluated in two ways: via a kinase profile (FIG. 23) and via phospho imaging assays (i.e., immunofluorescence assays using antibodies specific for the phosphorylated form of mTOR or AKT). In vitro kinase profiling provided percent inhibition for numerous targets within the PI3K cell signaling pathway, and cell-based imaging assays were performed to directly visualize the effect of each compound on phosphorylated Akt and phosphorylated mTOR in the cell system used for differentiation.
(§2) In column 2 of Table 6, the PI3K alpha_MTOR score reflects the ability of a compound to inhibit the phosphorylation of PI3K alpha and mTOR, where + indicates minimal inhibition, and +++ indicates maximal inhibition. In column 3 of Table 6, the score indicates the ratio of phosphorylated mTOR (as measured by fluorescence intensity) in cells treated with a compound and the phosphorylated mTOR (as measured by fluorescence intensity) in cells that were not treated with the compound. In column 4 of Table 6, the score indicates the ratio of phosphorylated AKT (as measured by fluorescence intensity) in cells treated with a compound and the phosphorylated AKT (as measured by fluorescence intensity) in cells that were not treated with the compound. A reported effect of AKT inhibitors is an increase in phosphorylated AKT.

phosphorylated mTOR = assay: Phospho imaging assay (immunofluorescence); type: cell-based, human; conditions: 60 min; treated versus untreated cells, fluorescence intensity
Description: as §1, §2

PI3K alpha = PI3K alpha (Homo sapiens, UniProt P42336); assay: In vitro kinase profile, PI3K alpha_MTOR score; type: biochemical
Chain of PI3K alpha (P42336 whole entry, species assumed): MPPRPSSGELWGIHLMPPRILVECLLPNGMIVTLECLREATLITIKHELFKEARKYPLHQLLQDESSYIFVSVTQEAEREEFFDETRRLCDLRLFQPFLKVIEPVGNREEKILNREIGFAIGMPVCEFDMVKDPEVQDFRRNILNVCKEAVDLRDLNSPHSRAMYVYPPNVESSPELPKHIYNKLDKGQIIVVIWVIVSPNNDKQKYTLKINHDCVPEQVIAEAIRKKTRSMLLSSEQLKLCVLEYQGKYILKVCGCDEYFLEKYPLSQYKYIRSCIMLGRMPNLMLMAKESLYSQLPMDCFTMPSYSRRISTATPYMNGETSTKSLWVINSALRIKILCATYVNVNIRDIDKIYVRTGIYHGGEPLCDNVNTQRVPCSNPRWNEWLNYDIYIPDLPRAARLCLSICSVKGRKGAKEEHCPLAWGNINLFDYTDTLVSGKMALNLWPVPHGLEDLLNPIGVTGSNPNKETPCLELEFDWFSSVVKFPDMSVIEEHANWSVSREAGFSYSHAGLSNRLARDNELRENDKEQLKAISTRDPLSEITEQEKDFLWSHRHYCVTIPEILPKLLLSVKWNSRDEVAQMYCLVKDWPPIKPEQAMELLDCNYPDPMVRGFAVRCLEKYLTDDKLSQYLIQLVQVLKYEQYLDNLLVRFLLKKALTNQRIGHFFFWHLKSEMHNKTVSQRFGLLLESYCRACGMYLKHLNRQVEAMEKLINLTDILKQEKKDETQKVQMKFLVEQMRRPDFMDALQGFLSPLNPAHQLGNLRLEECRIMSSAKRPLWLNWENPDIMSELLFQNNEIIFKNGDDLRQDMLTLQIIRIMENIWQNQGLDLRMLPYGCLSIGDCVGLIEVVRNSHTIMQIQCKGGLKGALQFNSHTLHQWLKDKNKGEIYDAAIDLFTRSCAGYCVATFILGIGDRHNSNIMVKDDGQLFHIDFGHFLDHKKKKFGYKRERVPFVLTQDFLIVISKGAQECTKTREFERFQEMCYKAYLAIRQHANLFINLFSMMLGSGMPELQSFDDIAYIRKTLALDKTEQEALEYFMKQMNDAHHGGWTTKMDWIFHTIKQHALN
Chain of PI3K alpha (P27986 whole entry partner, species assumed): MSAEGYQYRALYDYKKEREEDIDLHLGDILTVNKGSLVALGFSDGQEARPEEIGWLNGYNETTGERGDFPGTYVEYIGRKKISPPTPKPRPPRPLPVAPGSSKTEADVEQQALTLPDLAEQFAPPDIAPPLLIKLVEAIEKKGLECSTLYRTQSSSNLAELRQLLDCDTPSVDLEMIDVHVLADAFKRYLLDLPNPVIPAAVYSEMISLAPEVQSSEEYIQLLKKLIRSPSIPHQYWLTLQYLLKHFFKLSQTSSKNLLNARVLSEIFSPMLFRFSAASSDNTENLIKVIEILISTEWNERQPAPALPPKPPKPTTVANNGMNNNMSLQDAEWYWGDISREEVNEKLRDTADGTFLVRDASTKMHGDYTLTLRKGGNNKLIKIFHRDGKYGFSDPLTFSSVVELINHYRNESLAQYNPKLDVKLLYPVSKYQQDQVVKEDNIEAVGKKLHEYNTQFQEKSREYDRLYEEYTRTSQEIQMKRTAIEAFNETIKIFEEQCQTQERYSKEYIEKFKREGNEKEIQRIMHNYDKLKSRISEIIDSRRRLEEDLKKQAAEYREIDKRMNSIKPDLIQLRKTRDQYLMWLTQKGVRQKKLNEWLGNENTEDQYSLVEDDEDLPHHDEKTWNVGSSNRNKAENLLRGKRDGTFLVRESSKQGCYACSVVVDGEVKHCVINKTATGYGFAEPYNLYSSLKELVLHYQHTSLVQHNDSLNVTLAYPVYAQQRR
Description: as §1, §2

phosphorylated AKT = assay: Phospho imaging assay (immunofluorescence); type: cell-based, human; conditions: 60 min; treated versus untreated cells, fluorescence intensity
Description: as §1, §2

[1] = test system: human embryonic stem cells (hESC); assay: Endoderm differentiation of hESC with small-molecule inhibitors, flow cytometry of endoderm markers; type: cell-based; conditions: Activin A + 750 nM inhibitor, no Wnt3a, 3-day treatment
From the text: A variety of cell-type specific markers were used to monitor the differentiation of stem cells into endoderm cells in the flow cytometry, fluorescence imaging, and immunoassay experiments described below. To detect endoderm conversion, hESC-derived cell samples were stained for the expression of SOX17, FoxA2, and CXCR4 proteins. SOX17, FoxA2, and CXCR4 are proteins that are expressed by endoderm cells but not by stem cells. To detect stem cells, cell samples were stained for the expression of OCT4, a protein expressed by stem cells but not by endoderm cells.
Undifferentiated human embryonic stem cells (hES) were maintained at a density of 40,000 cells/cm^2 on qualified matrigel (BD, #354277) in TesR™2 medium ([…]™ Technologies #05860). Cultures were manually passaged twice a week. To prepare for endoderm differentiation, hESC cells were passaged into TesR™2 medium overnight. The following day, the TesR™2 medium was replaced with basal medium (DMEM/F12+Glutamax (Invitrogen, #10565) supplemented with B27 (Invitrogen, #17504-044)). No human embryos were destroyed in the process of obtaining stem cells for these methods. Furthermore, the plurality of stem cells is not obtained by the prior destruction of human embryos.
Unless otherwise noted, basal medium was supplemented with […] human Activin A (Peprotech, #120-14). When indicated, basal medium was also supplemented with an effective amount of, e.g., a growth factor such as […] human Wnt3a (R&D, #5036-WN-010), an isoform-specific P13K inhibitor or an mTOR inhibitor. […]
To prepare the cells for flow cytometry, hESC-derived cells grown under endoderm differentiation conditions were dissociated using Accutase (Innovative Cell technologies, #AT-104). Briefly, the cells were washed once in PBS, incubated with Accutase for 10 minutes at room temperature, pelleted, and washed in cold PBS. The Accutase-dissociated hESC-derived cell samples were stained with anti-CXC4 antibody, anti-SOX17 antibody, or anti-FoxA2 antibody. Additional cell samples were stained with isotype control antibodies (e.g., IgG1 or IgG2).
The cells that were to be stained with anti-CXCR4 antibody were washed once with cold DPBS and then directly stained with mouse anti-human CD184 (CXCR4)-IgG2-PE (BD, #555974) for one hour at 4° C. The cells that were to be stained with anti-SOX17 antibody or anti-FoxA2 antibody were first fixed for 25 minutes at 4° C. in fixation buffer (BD, #554655) and permeabilized for 30 minutes on ice in Perm Buffer III (BD, #554656). Anti-SOX17 staining was performed using a mouse anti-SOX17 IgG1-PE antibody (BD, #561591) at room temperature for 30 minutes. Anti-FoxA2 staining was performed using a mouse anti-human FoxA2 IgG1 (BD, #561589) under the same conditions. A control sample of cells were fixed as described above and stained with either an anti-IgG1-PE antibody (BD, #554680) at room temperature for 30 minutes or an anti-IgG2-PE antibody (BD, #55574) for one hour at 4° C.
The antibody-stained hESC-derived cells were then analyzed via flow cytometry using a BD LSRFortessa™ cell analyzer. […] Approximately 1×10^6 cells were analyzed per sample.

[2] = test system: human embryonic stem cells (hESC); assay: AlphaLISA of SOX17 and OCT4 in hESC-derived cells; type: cell-based; conditions: Activin A + 750 nM inhibitor, no Wnt3a, 3-day treatment
Description: To detect OCT4, the cells were washed three times in PBS and lysed with 50 ul AlphaLISA Lysis Buffer (Perkin Elmer, #AL003C). The lysis buffer was added to each cell sample and mixed with the cells five times. The cell samples were then incubated in a plate shaker at room temperature for 15 minutes. 5 μl of the lysate from each sample was then transferred to a 384 well OptiPlate (Perkin Elmer, #6005629). 5 μl of 10 ug/ml anti-rabbit acceptor bead (Perkin Elmer, #AL104M) and […] of 0.2 nM of rabbit anti-OCT4 antibody (Cell Signaling, #2890) was added to each well and incubated for 2 hours at room temperature. Following the incubation, 5 μl of 0.5 nM mouse anti-OCT4 antibody (BD, #611203) and […] of 0.5 nM biotinylated goat anti-mouse antibody (Invitrogen, #B2763) were added to each well and incubated at room temperature for 2 hours. Following the incubation, […] of streptavidin donor beads (Perkin Elmer, #6760002B) were added to each well and incubated for 30 minutes. The OptiPlates were then analyzed using an Envision Multilabel Plate Reader (Perkin Elmer, #2104-0010). All beads and antibodies were diluted as necessary in IAB Buffer (Perkin Elmer, #AL000C)+50 mM NaCl. Four replicate assays were performed.
To detect SOX17, the cells were washed three times in PBS and lysed with 50 ul Roche Complete Lysis Buffer (Roche, #04719956001). The lysis buffer was added to each cell sample and mixed with the cells five times. The cell samples were then incubated in a plate shaker at room temperature for 15 minutes. 5 μl of the lysate from each sample was then transferred to a 384 well OptiPlate (Perkin Elmer, #6005629). 5 μl of 10 ug/ml anti-rabbit acceptor bead (Perkin Elmer, #AL104M) and […] of 1 nM of rabbit anti-SOX17 antibody (Sigma, #AV33271) was added to each well and incubated for 2 hours at room temperature. Following the incubation, 5 μl of 0.5 nM mouse anti-SOX antibody (Sigma, #SAB3300093) and […] of 0.5 nM biotinylated goat anti-mouse antibody (Invitrogen, #B2763) were added to each well and incubated at room temperature for 2 hours. Following the incubation, […] of streptavidin donor beads (Perkin Elmer, #6760002B) were added to each well and incubated for 30 minutes. The OptiPlates were then analyzed using an Envision Multilabel Plate Reader (Perkin Elmer, #2104-0010). All beads and antibodies were diluted as necessary in IAB Buffer (Perkin Elmer, #AL000C) Four replicate assays were performed.
After a 3-day treatment, cells were harvested and stained with anti-SOX17 antibody as described above in preparation for AlphaLISA analysis.

| SMILES | PI3K alpha_MTOR score: MTOR (mTOR) | Avg(Avg (Ph MTOR_60m_%C # Spots)) (phosphorylated mTOR) | PI3K alpha_MTOR score: PI3K alpha (PI3K alpha) | Max(Avg (Ph AKT_60min_Intensity)) (phosphorylated AKT) | endoderm conversion (SOX17, FoxA2, CXCR4 flow cytometry) [1] | endoderm conversion (SOX17 AlphaLISA) [2] |
| --- | --- | --- | --- | --- | --- | --- |
| CNC(=O)Nc1ccc(-c2nc(N3CC4CCC(C3)O4)c3cnn(C4CCC5(CC4)OCCO5)c3n2)cc1 [WYE-125132] | +++ | 17.55 %C | – | – | – | – |
| COc1ccc2c(c1OC)N=C(NC(=O)c1cccnc1)N1CCN=C21 [PIK90] | – | 42.17 %C | +++ | 86.72 | – | – |
| CO[C@H]1C[C@@H]2CC[C@@H](C)[C@@](O)(O2)C(=O)C(=O)N2CCCC[C@H]2C(=O)O[C@H]([C@H](C)C[C@@H]2CC[C@@H](O)[C@H](OC)C2)CC(=O)[C@H](C)/C=C(\C)[C@@H](O)[C@@H](OC)C(=O)[C@H](C)C[C@H](C)/C=C/C=C/C=C/1C [Rapamycin] | – | 57.77 %C | – | – | – | – |
| CO[C@H]1C[C@@H]2CC[C@@H](C)[C@@](O)(O2)C(=O)C(=O)N2CCCC[C@H]2C(=O)O[C@H]([C@H](C)C[C@@H]2CC[C@@H](OC(=O)C(C)(CO)CO)[C@H](OC)C2)CC(=O)[C@H](C)/C=C(\C)[C@@H](O)[C@@H](OC)C(=O)[C@H](C)C[C@H](C)/C=C/C=C/C=C/1C [Temsirolimus] | – | 42.12 %C | – | – | – | – |
| Cn1c(=O)n(-c2ccc(C(C)(C)C#N)cc2)c2c3cc(-c4cnc5ccccc5c4)ccc3ncc21 [NVPBEZ235] | – | 43.44 %C | – | 88.3 | – | – |
| Oc1cccc(-c2nc(N3CCOCC3)c3oc4ncccc4c3n2)c1 [PI103] | PI3K alpha+++_MTOR+++ | 5.59 %C | PI3K alpha+++_MTOR+++ | – | – | – |
| CCC(=O)N1CCN(c2ccc(-n3c(=O)ccc4cnc5ccc(-c6cnc7ccccc7c6)cc5c43)cc2C(F)(F)F)CC1 [Torin1] | – | 66.6 %C | – | 89.48 | – | – |
| CN(C)C1CCN(C(=O)c2ccc(NC(=O)Nc3ccc(-c4nc(N5CCOCC5)nc(N5CCOCC5)n4)cc3)cc2)CC1 [PKI 587] | +++ | 77.99 %C | – | – | – | – |
| COc1ccc(-c2ccc3c(N4CCOC[C@@H]4C)nc(N4CCOC[C@@H]4C)nc3n2)cc1CO [AZD 8055] | +++ | 15.8 %C | – | – | – | – |
| COC(=O)Nc1ccc(-c2nc(N3CCOCC3)c3cnn(C4CCN(C(=O)OC)CC4)c3n2)cc1 [WYE - 354] | +++ | 10.49 %C | – | 89.35 | higher degree of endoderm conversion | better endoderm conversion than cells cultured in Activin A alone or cells cultured with an Akt inhibitor |
| Nc1cc(C(F)(F)F)c(-c2cc(N3CCOCC3)nc(N3CCOCC3)n2)cn1 [NVPBKM120] | PI3K alpha+++_MTOR+++ | 60.28 %C | PI3K alpha+++_MTOR+++ | – | – | – |
| COC[C@H]1OC(=O)c2coc3c2[C@@]1(C)C1=C(C3=O)[C@@H]2CCC(=O)[C@@]2(C)C[C@H]1OC(C)=O [Wortmannin] | – | 10.47 %C | – | – | – | – |
| COc1ccc(-c2ccc3c(N4CCOCC4)nc(N4C[C@@H](C)O[C@@H](C)C4)nc3n2)cc1CO [KU0063794] | +++ | 25.83 %C | + | – | higher degree of endoderm conversion | better endoderm conversion than cells cultured in Activin A alone or cells cultured with an Akt inhibitor |
| Cc1c(CN2CCN(C(=O)[C@H](C)O)CC2)sc2c(N3CCOCC3)nc(-c3cnc(N)nc3)nc12 [GDC0980] | – | 9.99 %C | – | – | – | – |
| Clc1ccc(C2(c3ccc(-c4cn[nH]c4)cc3)CCNCC2)cc1 [AT7867] | – | 73.59 %C | – | 122.15 | – | – |
| COC(=O)Nc1ccc(-c2nc(N3CCOCC3)c3cnn(C4CCN(Cc5cccnc5)CC4)c3n2)cc1 [WYE-687] | +++ | 12.81 %C | + | 86.65 | – | – |
| CCn1c(-c2nonc2N)nc2c(C#CC(C)(C)O)ncc(OC[C@H]3CCCNC3)c21 [GSK690693] | – | – | – | – | higher degree of endoderm conversion | – |
| COc1ncc(-c2ccc3nccc(-c4ccnnc4)c3c2)cc1NS(=O)(=O)c1ccc(F)cc1F [GSK2126458] | PI3K alpha+++_MTOR+++ | 15.55 %C | PI3K alpha+++_MTOR+++ | – | – | – |
